Laboratory results reported in patent EP1510220B1 (priority 1993, dated 1994).
Like-named read-outs stand apart in the source and are kept apart here.

How the values were obtained:
[1] = system: TGF-beta; test: TGF-beta activity in medium conditioned on rat vascular smooth muscle cells (MvLu cell assay); format: cell-based; conditions: cells treated for 96 hours in 10% FCS
Procedure: Assays for TGF-Beta. The TGF-beta activity present in medium conditioned on various cells was determined by DNA synthesis assay on mink lung […] (MvLu) cells; a modification of the assay described in Danielpour et al., J. Cell. Physiol., 138: 79-83, 1989. MvLu cells were subcultured at 1:5 dilution in DMEM + 10% FCS. After 24 hours, the medium was replaced with the conditioned medium to be tested in the absence or presence of the neutralizing antiserum to TGF-beta at 10 micrograms/ml. DNA synthesis during a 1 hour pulse of [^3H]-thymidine (5 microcuries/ml) was determined 23 hours after addition of the test medium. TGF-beta activity was calculated as the proportion of the inhibition of DNA synthesis which was reversed in the presence of neutralizing antibody, using a standard curve to convert the inhibition values into quantities of TGF-beta. The TGF-beta1 standards and conditioned media both contained 10% FCS in DMEM.

[2] = system: Rat aortic SMCs; test: Wound migration assay on confluent SMC; format: cell-based
Procedure: Cell culture. Rat aortic SMCs from 12-20 week old Wistar male rats were prepared by enzyme dispersion, as described in Example 7. The cultured cells were confirmed as >99% SMC by staining for SM-MHC, and proliferated with a cell cycle time of 36 h. Cells were passaged as described in Example 7, and were used either in primary culture or between passages 6-12.
Migration. Migration was assayed using SMC grown to confluence on glass coverslips. A defined injury is performed on the confluent layer of cells, which are allowed to recover in D-MEM + 10% FCS for 24 h. Bromodeoxyuridine (10 µM) is added between 18-24 h, to label proliferating cells. Cells migrating past the boundary of the wound edge at 24 h are detected by propidium iodide (PI) staining of the cell nuclei (500 µM PI in PBS + 0.5% NP-40 for 30 min at room temperature). Cells that synthesized DNA were detected by antibody staining for bromodeoxyuridine using fluorescein-conjugated anti-bromodeoxyuridine antibodies. Migrating and proliferating cells in each field of view were simultaneously counted by image analysis of the rhodamine emission from PI and fluorescein emission from bromodeoxyuridine.

[3] = system: Vascular smooth muscle cells

For CC/C(=C(\c1ccccc1)c1ccc(OCCN(C)C)cc1)c1ccccc1 [tamoxifen, trans-2-[4-(1,2-diphenyl-1-butenyl)phenoxy]-N,N-dimethylethylamine], the “increase of TGF-beta activity in the medium” value [1] was over 50 fold, the inhibition at 10 µM ([2]; Rattus norvegicus, added at the time of wounding, TGF-beta-1 10 ng/ml, tamoxifen 10 µM, 24 h, read-out: less cells crossed the boundary of the wound) was about 90% and the “entry into DNA synthesis stimulated upon wounding” value ([2]; bromodeoxyuridine labeling) was “did not significantly inhibit”.
Work on cytochalasin B yielded a morphological cytotoxicity grade ([3]; 0.01ug, 24 hrs + 24 hrs) of 0, a morphological cytotoxicity grade ([3]; 0.01ug, 24 hrs + 48 hrs) of 0 and a morphological cytotoxicity grade ([3]; 0.01ug, 24 hrs + 72 hrs) of 0. For the same compound, the morphological cytotoxicity grade ([3]; 0.01ug, 24 hrs + 96 hrs) was 0, the morphological cytotoxicity grade ([3]; 0.01ug, 24 hrs + 120 hrs) was 0 and the morphological cytotoxicity grade ([3]; 0.01ug, Continuous 6 hrs) was 0. The morphological cytotoxicity grade ([3]; 0.01ug, Continuous 24 hrs (r11, 24 hr exposure series)) was 0, the morphological cytotoxicity grade ([3]; 0.01ug, Continuous 24 hrs (r17, long term continuous series)) was 0 and the morphological cytotoxicity grade ([3]; 0.01ug, Continuous 48 hrs) was 0. For the same compound, the morphological cytotoxicity grade ([3]; 0.01ug, Continuous 72 hrs) was 0, the morphological cytotoxicity grade ([3]; 0.01ug, Continuous 96 hrs) was 0 and the morphological cytotoxicity grade ([3]; 0.01ug, Continuous 120 hrs) was 0. The morphological cytotoxicity grade ([3]; 0.01ug, Continuous 168 hrs) was 0, the morphological cytotoxicity grade ([3]; 0.01ug, Continuous 216 hrs) was 0 and the morphological cytotoxicity grade ([3]; 0.01ug, Continuous 264 hrs) was 0. For the same compound, the morphological cytotoxicity grade ([3]; 0.1 ug, 5 min + 2 hrs) was 0, the morphological cytotoxicity grade ([3]; 0.1 ug, 5 min + 6 hrs) was 0 and the morphological cytotoxicity grade ([3]; 0.1 ug, 5 min + 24 hrs) was 0. It also gave a morphological cytotoxicity grade ([3]; 0.1 ug, 5 min + 48 hrs) of 0, a morphological cytotoxicity grade ([3]; 0.1 ug, 5 min + 72 hrs) of 0 and a morphological cytotoxicity grade ([3]; 0.1 ug, 5 min + 96 hrs) of 0. For the same compound, the morphological cytotoxicity grade ([3]; 0.1 ug, 5 min + 120 hrs) was 0, the morphological cytotoxicity grade ([3]; 0.1 ug, 24 hrs + 24 hrs) was 0.5 and the morphological cytotoxicity grade ([3]; 0.1 ug, 24 hrs + 48 hrs) was 1. For the same compound, the morphological cytotoxicity grade ([3]; 0.1 ug, 24 hrs + 72 hrs) was 0.5, the morphological cytotoxicity grade ([3]; 0.1 ug, 24 hrs + 96 hrs) was 0 and the morphological cytotoxicity grade ([3]; 0.1 ug, 24 hrs + 120 hrs) was 0. The morphological cytotoxicity grade ([3]; 0.1 ug, Continuous 6 hrs) was 0, the morphological cytotoxicity grade ([3]; 0.1 ug, Continuous 24 hrs (r11, 24 hr exposure series)) was 1 and the morphological cytotoxicity grade ([3]; 0.1 ug, Continuous 24 hrs (r17, long term continuous series)) was 0. The morphological cytotoxicity grade ([3]; 0.1 ug, Continuous 48 hrs) was 1, the morphological cytotoxicity grade ([3]; 0.1 ug, Continuous 72 hrs) was 1 and the morphological cytotoxicity grade ([3]; 0.1 ug, Continuous 96 hrs) was 2. For the same compound, the morphological cytotoxicity grade ([3]; 0.1 ug, Continuous 120 hrs) was 1, the morphological cytotoxicity grade ([3]; 0.1 ug, Continuous 168 hrs) was 1 and the morphological cytotoxicity grade ([3]; 0.1 ug, Continuous 216 hrs) was 1. The morphological cytotoxicity grade ([3]; 0.1 ug, Continuous 264 hrs) was 1, the morphological cytotoxicity grade ([3]; 1 ug, 5 min + 2 hrs) was 0 and the morphological cytotoxicity grade ([3]; 1 ug, 5 min + 6 hrs) was 1. The morphological cytotoxicity grade ([3]; 1 ug, 5 min + 24 hrs) was 0.5, the morphological cytotoxicity grade ([3]; 1 ug, 5 min + 48 hrs) was 1 and the morphological cytotoxicity grade ([3]; 1 ug, 5 min + 72 hrs) was 1. The morphological cytotoxicity grade ([3]; 1 ug, 5 min + 96 hrs) was 1, the morphological cytotoxicity grade ([3]; 1 ug, 5 min + 120 hrs) was 1 and the morphological cytotoxicity grade ([3]; 1 ug, 24 hrs + 24 hrs) was 3. For the same compound, the morphological cytotoxicity grade ([3]; 1 ug, 24 hrs + 48 hrs) was 4, the morphological cytotoxicity grade ([3]; 1 ug, 24 hrs + 72 hrs) was 4 and the morphological cytotoxicity grade ([3]; 1 ug, 24 hrs + 96 hrs) was 4. For the same compound, the morphological cytotoxicity grade ([3]; 1 ug, 24 hrs + 120 hrs) was 4, the morphological cytotoxicity grade ([3]; 1 ug, Continuous 6 hrs) was 3 and the morphological cytotoxicity grade ([3]; 1 ug, Continuous 24 hrs (r11, 24 hr exposure series)) was 3. The morphological cytotoxicity grade ([3]; 1 ug, Continuous 24 hrs (r17, long term continuous series)) was 3, the morphological cytotoxicity grade ([3]; 1 ug, Continuous 48 hrs) was 3 and the morphological cytotoxicity grade ([3]; 1 ug, Continuous 72 hrs) was 3. It also gave a morphological cytotoxicity grade ([3]; 1 ug, Continuous 96 hrs) of 3, a morphological cytotoxicity grade ([3]; 1 ug, Continuous 120 hrs) of 3 and a morphological cytotoxicity grade ([3]; 1 ug, Continuous 168 hrs) of 4. For the same compound, the morphological cytotoxicity grade ([3]; 1 ug, Continuous 216 hrs) was 4, the morphological cytotoxicity grade ([3]; 1 ug, Continuous 264 hrs) was 4 and the cytotoxicity grade ([3]; 1 µg/ml, anti-migration/contraction effective dose, grade 1 = minimal) was 1. It also gave a morphological cytotoxicity grade ([3]; 10 ug, 5 min + 2 hrs) of 0.5, a morphological cytotoxicity grade ([3]; 10 ug, 5 min + 6 hrs) of 4 and a morphological cytotoxicity grade ([3]; 10 ug, 5 min + 24 hrs) of 4. It also gave a morphological cytotoxicity grade ([3]; 10 ug, 5 min + 48 hrs) of 4, a morphological cytotoxicity grade ([3]; 10 ug, 5 min + 72 hrs) of 4.5 and a morphological cytotoxicity grade ([3]; 10 ug, 5 min + 96 hrs) of 5. For the same compound, the morphological cytotoxicity grade ([3]; 10 ug, 5 min + 120 hrs) was 5.
